Results from US20040009156A1, “Antisense therapy using oligonucleotides that target human kinesin genes for treatment of cancer” (priority 2001, published 2004).

What was measured:
[1] = tested on: human colon cancer cell line SW620; experiment: Soft agar growth (anchorage independent growth) of transfected SW620 cells; assay type: cell-based; details: SW620 cells transfected with antisense oligonucleotide; versus reverse control; FIG. 1
Text: The antisense oligonucleotides (SEQ IDNO:17), (SEQ IDNO:4), and (SEQ ID NO:1) were each transfected into the human colon cancer cell line SW620. Additionally, the same colon cancer cell line was transfected with the corresponding reverse control sequences (respectively SEQ ID NO:35, SEQ ID NO:22 and SEQ ID NO:19). […] These assay results contained in FIG. 1 indicate that the synthesized kinesin antisense oligonucleotides inhibit tumorigenesis.

[2] = tested on: SW620 cells; experiment: Cell cycle profile by FACS analysis of propidium iodide stained cells; assay type: cell-based, human; details: SW620 cells transiently transfected; FIG. 2
Method: SW620 cells were transiently transfected with antisense oligonucleotides according to the invention and the effect on cell cycle profile evaluated by FACS analysis of propidium iodide stained cells. It was observed that cell tested antisense oligonucleotides arrested cells in G2/M phase to different degrees. […] Also, the effect of the same antisense oligonucleotides on the cell cycle of normal human filonblasts was tested.

[3] = tested on: SW620 cells; experiment: LDH cytotoxicity assay, alone and with cisplatinum; assay type: cell-based, human; details: FIG. 4
Method: LDH cytotoxicity assays were performed to determine the effect of antisense oligonucleotides on SW620 cell death alone and in the presence of the chemotherapeutic drug cisplatinum. […] Also, the same LDH cytotoxicity assays were performed on MRC9 cells transfected with the same oligonucleotides in the presence or absence of cisplatinum.

## CCTCCGCCATCCTATCAGGCTGAA (chemistry not given here) [SEQ ID NO:1]
[1]
  capability of the cells to grow in soft agar (anchorage independent growth): significantly inhibited
[2]
  cell cycle arrest in G2/M phase: next best inhibiting effect
[3]
  cell death (LDH cytotoxicity), oligonucleotide alone: did not induce cytotoxicity

## GTTGATCTGGGCTCGCAGAGGTAAT (chemistry not given here) [SEQ ID NO:4]
[1]
  capability of the cells to grow in soft agar (anchorage independent growth): significantly inhibited
[3]
  cell death (LDH cytotoxicity), oligonucleotide alone: induced death

## TGGATAAATTGCCTGGAATCAGCGC (chemistry not given here) [SEQ ID NO:17]
[1]
  capability of the cells to grow in soft agar (anchorage independent growth): significantly inhibited
[3]; in combination with the chemotherapeutic drug cisplatinum
  cytotoxicity (LDH) in combination with cisplatinum: increase in cytotoxicity
